Test system: AHR
Test: AHR signature gene set testing in tumor tissue of advanced melanoma patients after immune checkpoint inhibition
Format: in vivo, human
Conditions: tumor tissue of advanced melanoma patients after treatment (GSE91061), FIG. 31C
Source text: The eBayes adjusted moderated t-statistic was applied for differential gene expression using limma (Ritchie, M E, et al. (2015). limma powers differential expression analyses for RNA-sequencing and microarray studies. Nucleic Acids Research 43(7), e47) and limma-trend (Phipson, B, et al. (2016). Robust hyperparameter estimation protects against hypervariable genes and improves power to detect differential expression. Annals of Applied Statistics 10(2), 946-963) or the limma RNA-seq pipeline (Ritchie, M E, et al. (2015). limma powers differential expression analyses for RNA-sequencing and microarray studies. Nucleic Acids Research 43(7), e47). Batch effects, when present, were accounted for in the linear regression. Gene set testing of AHR activation was performed using roast (Wu, D., et al. (2010). ROAST: rotation gene set tests for complex microarray experiments. Bioinformatics 26, 2176-2182).
Using an AHR signature comprising of all the biomarkers in Table 1, allows the detection of AHR modulation caused by both direct and indirect AHR modulators in a cell type and ligand type independent fashion.

Nivolumab: immune checkpoint inhibition; indirect modulation of AHR through immunotherapy
modulation of AHR detected with AHR signature of all Table 1 biomarkers: indirect modulation of AHR

Source: patent US20220195533A1, “ARYL HYDROCARBON RECEPTOR (AHR) ACTIVATION SIGNATURE AND METHODS FOR DETERMINING AHR SIGNALING STATUS” (DEUTSCHES KREBSFORSCHUNGSZENTRUM STIFTUNG DES OFFENTLICHEN …, priority 2019, published 2022)
